According to publication PMC6267684, “Pharmacokinetic evaluation of the PNC disassembler metarrestin in wild-type and Pdx1-Cre;LSL-Kras^G12D/+;Tp53^R172H/+ (KPC) mice, a genetically engineered model of pancreatic cancer” (Cancer Chemotherapy and Pharmacology, 2018):

Key:
[1] = test system: cleaved caspase 3; assay: Cleaved caspase 3 immunohistochemistry in KPC tumors; assay type: in vivo, KPC mice; settings: 25 mg/kg by gavage (PO) for 14 days
Source text: To arrive at markers driven by metarrestin exposure, we next subjected untreated and metarrestin-treated KPC tumors and matched normal pancreata to unbiased gene expression profiling using RNA-sEq. […] Thus, FOXA1 and FOXO6 may provide leads for future predictive biomarker development, assist in determination of the minimally efficacious dose, and add additional insight into the mechanism of action of metarrestin.
Suppl. Fig. 7. […] Nuclear cleaved caspase 3 expression levels in metarrestin-treated KPC tumors. Representative images of cleaved caspase 3 immunohistochemistry in tumors of KPC mice treated with vehicle (top) or 25mg/kg metarrestin for 14 days (bottom). Images 20×, inset 40×.

[2] = Steady-state PK in KPC mice fed metarrestin-infused chow; assay type: in vivo; settings: 25 mg/kg PO chow MD
Method: Metarrestin [ML-246; Trans-4-(7-benzyl-4-imino-5,6-diphenyl-4,7-dihydro-3H-pyrrolo[2,3-d]pyrimidin-3-yl) cyclohexanol] was manufactured in-house using the previously described 4-step synthesis sequence. Purity (> 98%) was determined by LC-MS/MS and 1H-NMR analysis as previously reported. To enhance bioavailability, the drug was micronized to particles of uniform small size with greater surface area using a technique proprietary to Crititech Inc. (Lawrence, Kansas). In brief, the drug substance was dissolved in organic solvent dichloromethane and precipitated using compressed super critical carbon dioxide as the anti-solvent. The produced material had 90% particles with a diameter less than 1.131 µm with a mean diameter of 0.829 µm (Suppl. Figure 1). […]
An ultra-performance liquid chromatography–tandem mass spectrometry (UPLC–MS/MS) method was developed to determine metarrestin concentrations in plasma and tissue samples. […] Data were analyzed using MassLynx V4.1.
The pharmacokinetic parameters were calculated using the non-compartmental approach (Models 200 and 201) of the pharmacokinetic software Phoenix WinNonlin, version 6.4 (Certara, St. Louis, MO). The area under the plasma concentration vs time curve (AUC) was calculated using the linear trapezoidal method. […]

N=c1c2c(-c3ccccc3)c(-c3ccccc3)n(Cc3ccccc3)c2ncn1[C@H]1CC[C@H](O)CC1 [metarrestin, Trans-4-(7-benzyl-4-imino-5,6-diphenyl-4,7-dihydro-3H-pyrrolo[2,3-d]pyrimidin-3-yl) cyclohexanol]
cell death in KPC tumors (nuclear cleaved caspase 3) [1]: does not induce cell death | intratumor AUC0–24h [2]: 396,000 h ng/mL
